Substitutions are numbered along the chain they refer to.
Tests used:
[1] = biological target: T1, D39G/R84G mutant EAG1 channels (Mus musculus, UniProt Q60603, D39G/R84G); assay: TEVC recording, imipramine inhibition, D39G/R84G double mutant; type: cell-based; conditions: D39G/R84G mutant EAG1 channel, +50 mV
T1 construct: expressed in transfected cells; host or cells: Xenopus laevis oocytes injected with cRNA
T1 sequence (Q60603 1-989 D39G/R84G): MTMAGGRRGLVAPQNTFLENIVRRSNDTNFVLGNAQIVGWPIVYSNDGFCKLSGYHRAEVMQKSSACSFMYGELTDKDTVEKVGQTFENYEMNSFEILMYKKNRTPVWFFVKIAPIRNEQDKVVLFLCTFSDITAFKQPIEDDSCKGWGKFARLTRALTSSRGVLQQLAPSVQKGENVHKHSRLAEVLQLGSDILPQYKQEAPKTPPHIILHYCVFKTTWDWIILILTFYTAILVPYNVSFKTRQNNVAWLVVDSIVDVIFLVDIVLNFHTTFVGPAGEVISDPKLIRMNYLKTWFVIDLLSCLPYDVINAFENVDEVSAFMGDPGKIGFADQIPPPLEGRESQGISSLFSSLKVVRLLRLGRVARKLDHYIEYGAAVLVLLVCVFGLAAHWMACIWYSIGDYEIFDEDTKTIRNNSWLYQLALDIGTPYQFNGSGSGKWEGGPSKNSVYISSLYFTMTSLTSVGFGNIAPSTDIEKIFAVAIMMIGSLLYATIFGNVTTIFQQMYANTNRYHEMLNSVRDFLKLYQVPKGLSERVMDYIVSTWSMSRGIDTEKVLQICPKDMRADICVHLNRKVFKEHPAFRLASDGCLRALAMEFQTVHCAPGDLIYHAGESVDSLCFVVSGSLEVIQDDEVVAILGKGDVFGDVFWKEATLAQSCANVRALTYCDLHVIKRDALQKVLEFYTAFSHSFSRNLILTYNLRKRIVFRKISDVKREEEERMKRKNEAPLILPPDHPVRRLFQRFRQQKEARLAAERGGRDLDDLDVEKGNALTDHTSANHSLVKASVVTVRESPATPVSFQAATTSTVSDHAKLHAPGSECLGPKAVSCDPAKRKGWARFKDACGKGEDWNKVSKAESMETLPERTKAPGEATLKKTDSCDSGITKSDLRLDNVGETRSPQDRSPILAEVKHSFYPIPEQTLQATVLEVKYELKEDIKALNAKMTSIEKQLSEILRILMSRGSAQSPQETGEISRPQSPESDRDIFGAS
Excerpt: (§1) The cDNA encoding wild-type (WT) mouse EAG1 channels in pGH19 vector was kindly provided by G. Robertson (University of Wisconsin-Madison, Madison, WI). The mutant ΔPAS EAG1 channel in pGH19 with the deletion of the PAS domain residues 2 to 130 was generated by Bio Basic Inc and verified by DNA sequencing (Genewiz). Mutant EAG1 channels with single amino acid substitutions were generated by Genewiz and verified by DNA sequencing. cRNA was transcribed using the T7 mMessage mMachine kit (Thermo Fisher Scientific). Defolliculated Xenopus laevis oocytes were purchased from Ecocyte Bioscience or Xenopus1 and injected with the cRNA using a Nanoinject II oocyte injector (Drummond).
(§2) For EAG1 current recordings, oocytes were placed into a handmade chamber containing a bath solution for the current recording. The currents were recorded using a TEVC technique with OC-725C amplifier (Warner Instruments) and pClamp11 software (Molecular Devices). The signals were digitized using Digidata 1550 (Molecular Devices). Patch pipettes were pulled from borosilicate glass and had resistances of 0.7 to 1.5 MΩ. The recording (bath) solution contained 96 mM NaCl, 4 mM KCl, 0.1 mM CaCl2, 1.8 mM MgCl2, and 5 mM HEPES, pH 7.5. The pipette solution contained 3 M KCl. […]

[2] = biological target: T2, R84G mutant EAG1 channels (Mus musculus, UniProt Q60603, R84G); assay: TEVC recording, imipramine inhibition, R84G mutant; type: cell-based; conditions: R84G mutant EAG1 channel, +50 mV
T2 construct: expressed in transfected cells; host or cells: Xenopus laevis oocytes injected with cRNA
T2 sequence (Q60603 1-989 R84G): T1 sequence (Q60603 1-989 D39G/R84G) with G39D
Excerpt: as §1, §2

IC50 [1]: 142 ± 28.5 µM | IC50 [2]: 92.6 ± 2.7 µM
Structure (SMILES): CN(C)CCCN1c2ccccc2CCc2ccccc21 [imipramine]
